The source of these data is US6750058B1, “Transfecting peptide vector, composition containing same and applications” (Commissariat a l'Energie Atomique, priority 1997, dated 2004).

One data set has as its system Human erythrocytes. In words: Haemolytic test. Format: cell-based. As to conditions: 6 μg of peptide I, 10^6 erythrocytes, 37° C. As to the method:
Human erythrocytes are washed 3 times with PBS buffer. 10^6 erythrocytes are incubated with 6 μg of peptide I for various periods of time at 37° C. After centrifugation at 10,000 g for 5 min, the optical density of the supernatant is measured at 540 nm.

The subject of a further data set is HeLa cells. The experiment in a line: Transfection of HeLa cells with luciferase plasmid pGL3, light emission in cell lysates. It counts as cell-based. As to conditions: for RLU (luciferase light emission): DNA 1.5 μg; for transfection (in words): summary of Table II. How it is done: The HeLa cells are cultured at 37° C. in an EMEM medium supplemented with 10% foetal calf serum under an atmosphere containing 5% CO2.
1.5 to 12 μg of peptide I in 50 μl of dilution buffer (20 mM Tris, pH 7.4, 150 mM NaCl) are incubated with 1.5 μg of plasmid pGL3 in 250 μl of EMEM medium for 15 to 30 min at room temperature.
The mixture of DOTAP or of DOSPER with 1.5 μg of plasmid pGL3 is prepared according to the manufacturer's instructions (Boehringer). For the studies of the effect of the peptide on transfection in the presence of liposomes, portions of peptides are mixed with DOTAP or DOSPER in the dilution buffer defined above for 15 to 30 min at room temperature, and then 1.5 μg of plasmid pGL3 are added and incubated for 15 min at room temperature.
The transfections are carried out in plates comprising 24 wells (Beckton Dickinson) with 1.5×10^5 cells/well (confluence of about 50%) for 1 h at 37° C. After 24 h, the light emission is measured in the cell lysates with the Promega Luciferase Assay System test.

For the compound `CC(C)C[C@H](NC(=O)[C@H](CCCNC(=N)N)NC(=O)[C@H](C)NC(=O)[C@H](CCCNC(=N)N)NC(=O)[C@H](CCCCN)NC(=O)[C@H](C)N)C(=O)N[C@@H](CO)C(=O)N[C@H](C(=O)N[C@@H](CO)C(=O)N[C@@H](Cc1ccccc1)C(=O)N[C@@H](CC(N)=O)C(=O)N1CCC[C@H]1C(=O)N[C@H](C(=O)N[C@@H](Cc1ccc(O)cc1)C(=O)N1CCC[C@H]1C(=O)N[C@@H](Cc1ccc(O)cc1)C(=O)N[C@@H](CCC(=O)O)C(=O)N[C@@H](CC(=O)O)C(=O)N[C@@H](CCC(=O)O)C(=O)N[C@@H](CO)C(=O)N[C@@H](CCCCN)C(=O)N[C@@H](CCCCN)C(=O)N[C@@H](CCCCN)C(=O)N[C@@H](CCCCN)C(=O)N[C@@H](CCCCN)C(=O)N[C@@H](CCCCN)C(=O)N[C@@H](CCCCN)C(=O)N[C@@H](CCCCN)C(=O)N[C@@H](CCCCN)C(=O)N[C@@H](CCCCN)C(=O)N[C@@H](CCCCN)C(=O)N[C@@H](CCCCN)C(=O)N[C@@H](CCCCN)C(=O)N[C@@H](CCCCN)C(=O)N[C@@H](CCCCN)C(=O)N[C@@H](CCCCN)C(=O)N[C@@H](CCCCN)C(=O)N[C@@H](CCCCN)C(=O)N[C@@H](CCCCN)C(=O)N[C@@H](CCCCN)C(=O)O)C(C)C)[C@@H](C)O` [Peptide I, AKRARLSTSFNPVYPYEDES - K20], the haemolytic test result in the data set on Human erythrocytes is “negative results”.

With “A K R A R L S T S E D E S-K10 (AKRARLSTSEDESKKKKKKKKKK) [Peptide IE]”, the “RLU (luciferase light emission)” value in the data set on HeLa cells (Table II, peptide 3 μg) was 1 RLU/10 s/10^5 cells × 10^3; in the data set on HeLa cells (Table II, peptide 6 μg), 10 RLU/10 s/10^5 cells × 10^3; in the data set with HeLa cells (Table II, peptide 9 μg) it was 110 RLU/10 s/10^5 cells × 10^3; in the data set with HeLa cells (Table II, peptide 12 μg) it was 330 RLU/10 s/10^5 cells × 10^3. For the same compound, the “times less efficient than peptide IC” value in the data set with HeLa cells (transfection efficiency, Table II) is “approximately 30 times”.

Consider “AKRARLSTSFNPVYPYEDES - K10 [Peptide IC]”, for which the “RLU (luciferase light emission)” value in the data set on HeLa cells (Table II, peptide 3.6 μg) is listed as 1 RLU/10 s/10^5 cells × 10^3; in the data set with HeLa cells (Table II, peptide 9 μg) it was 2870 RLU/10 s/10^5 cells × 10^3; in the data set with HeLa cells (Table II, peptide 12 μg), 1330 RLU/10 s/10^5 cells × 10^3. The “effect of reduced number of lysines in the polylysine polymer on transfection efficiency” value with HeLa cells (can be compensated for by increasing the quantity of peptide) is recorded as “modest negative effect”.

As to “AKRARLSTSFNPVYPYEDES [Peptide IA]”, the “RLU (luciferase light emission)” value with HeLa cells (Table II, peptide 3-12 μg) is 1 RLU/10 s/10^5 cells × 10^3. The “transfection (in words)” value with HeLa cells is “no transfection”.

For “L S T S F N P V Y P Y E D E S-K20 [Peptide ID]”, in the data set with HeLa cells, the “attaching and condensing the DNA and entering into the cell” value was “still capable of attaching and condensing the DNA and of entering into the cell”; the “transport of the DNA into the nucleus” value is “incapable of transporting this DNA into the nucleus”; the “transfection (in words)” value was “no transfection”. Also, the “RLU (luciferase light emission)” value in the data set on HeLa cells (Table II, peptide 3-12 μg) was 1 RLU/10 s/10^5 cells × 10^3.
